Experimental data: PubChem BioAssay (NCI)
Where “and” joins values, the source holds several entries; their conditions need not be identical. Equal entries are not always repeated.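 Five concentrations, 48 hours, 96-well plates. GI50 marks 50% less growth. TGI marks complete inhibition of growth.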

Experiments:
Assay in all cases: growth of human tumour cells (NCI), 48 h
LOX IMVI melanoma = test system: LOX IMVI melanoma
OVCAR-4 ovarian = test system: OVCAR-4 ovarian
OVCAR-8 ovarian = test system: OVCAR-8 ovarian
OVCAR-5 ovarian = test system: OVCAR-5 ovarian
A498 renal = test system: A498 renal
BT-549 breast = test system: BT-549 breast
OVCAR-3 ovarian = test system: OVCAR-3 ovarian
EKVX NSCLC = test system: EKVX NSCLC
SN12C renal = test system: SN12C renal
UO-31 renal = test system: UO-31 renal

COc1cc2c3c(c1O)C1(C=CC(=O)C=C1)CC3N(C)CC2 (stereo not given)
TGI (LOX IMVI melanoma): 9.28 µM
TGI (OVCAR-4 ovarian): > 100 µM
TGI (OVCAR-8 ovarian): 38.4 µM
TGI (OVCAR-5 ovarian): 36.3 µM
TGI (A498 renal): 48.4 µM
TGI (BT-549 breast): 30.6 µM
TGI (OVCAR-3 ovarian): 22.9 µM
TGI (EKVX NSCLC): 25.6 µM
TGI (SN12C renal): 30.2 µM

ClC1=C(Cl)C(Cl)=C(Cl)C1=Cc1ccc(Cl)cc1
GI50 (LOX IMVI melanoma): 0.233 µM
TGI (LOX IMVI melanoma): 0.71 µM
GI50 (OVCAR-4 ovarian): 0.818 µM
TGI (OVCAR-4 ovarian): 2.34 µM
GI50 (OVCAR-8 ovarian): 0.36 µM
TGI (OVCAR-8 ovarian): 2.27 µM
GI50 (OVCAR-5 ovarian): 0.705 µM
TGI (OVCAR-5 ovarian): 2.05 µM
GI50 (A498 renal): 1.6 µM
TGI (A498 renal): 3.17 µM
GI50 (BT-549 breast): 0.428 µM
TGI (BT-549 breast): 1.58 µM
GI50 (OVCAR-3 ovarian): 0.309 µM
TGI (OVCAR-3 ovarian): 0.853 µM
GI50 (EKVX NSCLC): 0.816 µM
TGI (EKVX NSCLC): 3.08 µM
GI50 (UO-31 renal): 0.539 µM
TGI (UO-31 renal): 2.52 µM
GI50 (SN12C renal): 0.375 µM
TGI (SN12C renal): 1.82 µM

C[C@@H](Oc1cc(-c2cnn(C3CC4(CCCNC4)C3)c2)cnc1N)c1c(Cl)ccc(F)c1Cl (stereo not given in full)
GI50 (LOX IMVI melanoma): 1.17 µM
TGI (LOX IMVI melanoma): 2.5 µM
GI50 (OVCAR-4 ovarian): 1.85 µM
TGI (OVCAR-4 ovarian): 5.56 µM
GI50 (OVCAR-8 ovarian): 2.06 µM
TGI (OVCAR-8 ovarian): 5.93 µM
GI50 (OVCAR-5 ovarian): 1.29 µM
TGI (OVCAR-5 ovarian): 4.93 µM
GI50 (A498 renal): 0.532 µM
TGI (A498 renal): 2.53 µM
GI50 (BT-549 breast): 1.95 µM
TGI (BT-549 breast): 3.72 µM
GI50 (OVCAR-3 ovarian): 2.02 µM
TGI (OVCAR-3 ovarian): 5.08 µM
GI50 (UO-31 renal): 1.76 µM
TGI (UO-31 renal): 3.9 µM
GI50 (SN12C renal): 1.5 µM
TGI (SN12C renal): 8.97 µM

CC[C@@]1(OC(=O)CN)C(=O)OCc2c1cc1n(c2=O)Cc2cc3c(N)c4c(cc3nc2-1)OCO4
GI50 (LOX IMVI melanoma): < 0.0001 µM
GI50 (OVCAR-4 ovarian): 0.0507 µM and 0.0386 µM
TGI (OVCAR-4 ovarian): 0.356 µM and 0.658 µM
GI50 (OVCAR-8 ovarian): 0.000109 µM
TGI (OVCAR-8 ovarian): 0.107 µM and 0.0128 µM
GI50 (OVCAR-5 ovarian): 0.0065 µM and 0.0427 µM
GI50 (A498 renal): 0.00226 µM
TGI (A498 renal): 0.0661 µM
GI50 (BT-549 breast): 0.24 µM
GI50 (OVCAR-3 ovarian): 0.0352 µM and 0.0116 µM
TGI (OVCAR-3 ovarian): 0.481 µM and 0.336 µM
GI50 (EKVX NSCLC): 0.0808 µM
GI50 (UO-31 renal): < 0.0001 µM
GI50 (SN12C renal): < 0.0001 µM

Brc1ccc(Br)nn1
GI50 (LOX IMVI melanoma): 1.41 µM
TGI (LOX IMVI melanoma): 2.88 µM
GI50 (OVCAR-4 ovarian): 1.29 µM
TGI (OVCAR-4 ovarian): 2.77 µM
GI50 (OVCAR-8 ovarian): 2.4 µM
TGI (OVCAR-8 ovarian): 9.26 µM
GI50 (OVCAR-5 ovarian): 11.7 µM
TGI (OVCAR-5 ovarian): 24.8 µM
GI50 (A498 renal): 3.42 µM
TGI (A498 renal): 17.5 µM
GI50 (BT-549 breast): 1.52 µM
TGI (BT-549 breast): 2.96 µM
GI50 (EKVX NSCLC): 8.17 µM
TGI (EKVX NSCLC): 24.7 µM
GI50 (UO-31 renal): 2.62 µM
TGI (UO-31 renal): 14.9 µM
GI50 (SN12C renal): 1.62 µM
TGI (SN12C renal): 3.53 µM

CN1CCN(c2ccc3nc4c(nc3c2C(F)(F)F)C(=O)c2ncccc2C4=O)CC1
GI50 (LOX IMVI melanoma): 1.04 µM
TGI (LOX IMVI melanoma): 2.66 µM
GI50 (OVCAR-4 ovarian): 1.07 µM
TGI (OVCAR-4 ovarian): 2.26 µM
GI50 (OVCAR-8 ovarian): 1.97 µM
TGI (OVCAR-8 ovarian): 8.96 µM
GI50 (A498 renal): 1.94 µM
TGI (A498 renal): 3.63 µM
GI50 (BT-549 breast): 1.58 µM
TGI (BT-549 breast): 3.07 µM
GI50 (OVCAR-3 ovarian): 0.379 µM
TGI (OVCAR-3 ovarian): 1.41 µM
GI50 (EKVX NSCLC): 1.79 µM
TGI (EKVX NSCLC): 3.87 µM
GI50 (UO-31 renal): 1.33 µM
TGI (UO-31 renal): 2.84 µM
GI50 (SN12C renal): 1.44 µM
TGI (SN12C renal): 2.91 µM

CCCCCc1c(C)[nH]c(/C=c2\[nH]/c(=C3/C=c4ccccc4=N3)cc2OC)c1C
GI50 (LOX IMVI melanoma): 0.0248 µM
TGI (LOX IMVI melanoma): 0.0676 µM
GI50 (OVCAR-4 ovarian): 0.0687 µM
TGI (OVCAR-4 ovarian): 16.3 µM
GI50 (OVCAR-8 ovarian): 0.297 µM
TGI (OVCAR-8 ovarian): 1.67 µM
GI50 (OVCAR-5 ovarian): 0.0654 µM
TGI (OVCAR-5 ovarian): 1.81 µM
GI50 (A498 renal): 0.0944 µM
TGI (A498 renal): 1.75 µM
GI50 (BT-549 breast): 0.08 µM
TGI (BT-549 breast): 2.14 µM
GI50 (OVCAR-3 ovarian): 0.109 µM
TGI (OVCAR-3 ovarian): 0.699 µM
GI50 (UO-31 renal): 0.0882 µM
TGI (UO-31 renal): 0.329 µM
GI50 (SN12C renal): 0.0926 µM
TGI (SN12C renal): 1.88 µM
